Laboratory results published in patent US6492364B1, “Triazolo and derivatives as chemokine inhibitors” (Toray Industries, Inc., priority 1998, dated 2002).
Where a name gives a salt, the structure may show the parent alone.

Assays:
CCR1 = molecular target: T1, CCR1 (Homo sapiens, UniProt P32246); test: Inhibition of RANTES-induced intracellular calcium increase in THP-1 cells (Fura-2); type: cell-based; conditions: human monocytic cell line THP-1, stimulated with RANTES (40 ng/ml), intracellular calcium level
T1 construct: endogenous in cells; host or cells: THP-1 (human monocytic cell line)
T1 sequence (P32246 1-355): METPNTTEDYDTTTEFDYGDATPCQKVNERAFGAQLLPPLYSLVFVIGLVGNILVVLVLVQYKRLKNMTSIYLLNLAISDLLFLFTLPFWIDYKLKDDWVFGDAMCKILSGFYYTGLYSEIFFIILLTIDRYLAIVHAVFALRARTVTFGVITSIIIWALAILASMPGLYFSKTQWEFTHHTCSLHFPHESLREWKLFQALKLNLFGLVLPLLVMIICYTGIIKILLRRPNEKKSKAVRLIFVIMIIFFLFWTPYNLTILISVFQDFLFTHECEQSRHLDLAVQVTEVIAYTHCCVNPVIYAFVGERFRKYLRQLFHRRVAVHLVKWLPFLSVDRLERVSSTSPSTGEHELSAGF
Method: (§1) The CCR receptor-inhibiting activities of the compounds represented by Formula I will now be described. Using human eosinophil or human monocytic cell line (THP-1), the CCR receptor-inhibiting activities were studied.
(§2) Human peripheral blood eosinophils or THP- l cells were suspended in RPMI-1640 culture medium containing 1% fetal calf serum (FCS) and cultured at 37° C. for 30 minutes in the presence of 5 μM of Fura-2/AM (DOJINDO LABORATORIES). The cells were washed twice with assay buffer (140 mM NaCl, 10 mM KCl, 1.8mM CaCl2, 1 mM MgCl2, 1 mM Na2HPO4, 25mM HEPES, 5 mM glucose, 1% BSA; pH7.4) at 4° C. to remove Fura-2/AM which was not taken into the cells. The cells were suspended in the assay buffer to a final cell density of 1×10^6 cells/ml and the cell suspension was stored in the dark until assay. The calcium levels in the cells were measured by using CAF100 commercially available from Nippon Koden Co. That is, 490 μl of the suspension of the cells loaded with Fura-2 was placed in a cuvette and the cuvette was set in CAF100. After the fluorescence intensities at 340 nm and 380 nm of excitation, as well as the ratio thereof, were stabilized, 10 μl of 250 μM solution of each test compound was injected. The change in the calcium level in the cells within one minute from the stimulation was measured in terms of the ratio (F340/F380) of the intensity of the excitation light at 340 nm to that of the light at 380 nm, and the intracellular calcium level induced by the stimulation was defined as the peak of the ratio. One minute after exposure of the cells to each test compound, the cells were stimulated with eotaxin (5 ng/ml), RANTES (40 ng/ml) or MCP-1 (10 ng/ml). It is thought that the responses by THP-1 cells to RANTES and MCP-1 are mediated through CCR1 and CCR2, respectively; The response of eosinophils to eotaxin is thought to be mediated through CCR3. The increase of the intracellular calcium level was compared to that of the corresponding case wherein the cells were not treated with the test compound.

CCR2 = molecular target: T2, CCR2 (Homo sapiens, UniProt P41597); test: Inhibition of MCP-1-induced intracellular calcium increase in THP-1 cells (Fura-2); type: cell-based; conditions: human monocytic cell line THP-1, stimulated with MCP-1 (10 ng/ml), intracellular calcium level
T2 construct: endogenous in cells; host or cells: THP-1 (human monocytic cell line)
T2 sequence (P41597 1-360 isoform P41597-2): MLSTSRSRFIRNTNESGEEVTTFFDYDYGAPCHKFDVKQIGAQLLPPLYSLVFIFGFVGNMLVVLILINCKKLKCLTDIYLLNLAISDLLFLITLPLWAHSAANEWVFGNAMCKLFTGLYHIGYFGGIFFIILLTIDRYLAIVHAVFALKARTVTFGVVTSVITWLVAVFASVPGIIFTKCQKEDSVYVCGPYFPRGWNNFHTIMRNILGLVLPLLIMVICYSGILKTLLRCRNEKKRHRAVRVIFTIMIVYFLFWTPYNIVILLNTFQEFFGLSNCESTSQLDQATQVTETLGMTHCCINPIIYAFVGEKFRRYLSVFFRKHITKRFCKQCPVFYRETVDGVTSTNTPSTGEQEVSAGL
Method: as §1, §2

CCR3 = molecular target: T3, CCR3 (Homo sapiens, UniProt P51677); test: Inhibition of eotaxin-induced intracellular calcium increase in human eosinophils (Fura-2); type: cell-based; conditions: human peripheral blood eosinophils, stimulated with eotaxin (5 ng/ml), intracellular calcium level
T3 construct: endogenous in cells; host or cells: human peripheral blood eosinophils (primary cells)
T3 sequence (P51677 1-355): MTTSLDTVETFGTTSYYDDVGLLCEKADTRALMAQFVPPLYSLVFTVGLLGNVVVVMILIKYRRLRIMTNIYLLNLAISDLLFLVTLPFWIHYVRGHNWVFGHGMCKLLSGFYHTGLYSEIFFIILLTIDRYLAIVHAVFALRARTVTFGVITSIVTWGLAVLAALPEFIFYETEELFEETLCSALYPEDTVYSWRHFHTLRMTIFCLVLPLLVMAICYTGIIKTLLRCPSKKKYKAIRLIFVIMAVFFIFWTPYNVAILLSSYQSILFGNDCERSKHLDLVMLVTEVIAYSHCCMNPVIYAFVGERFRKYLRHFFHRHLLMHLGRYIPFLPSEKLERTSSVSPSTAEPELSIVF
Method: as §1, §2

Row | Structure (SMILES) | melting point | IC50 (CCR1) | IC50 (CCR2) | IC50 (CCR3)
1 | Cc1nnc2n(CCCN3CCC(C(c4ccccc4)c4ccccc4)CC3)c(=O)c3ccccc3n12 (as salt: hydrochloride) [Compound 14] | 172.8 to 190.5 °C |  |  | 
2 | Cc1nnc2n(CCCCN3CCC(C(c4ccccc4)c4ccccc4)CC3)c(=O)c3ccccc3n12 (as salt: hydrochloride) [Compound 56] | 166.5 to 180 °C |  |  | 
3 | Cc1nnc2n(CCCN3CCC(=C(c4ccccc4)c4ccccc4)CC3)c(=O)c3ccccc3n12 [Compound 7] | 157 to 159 °C |  |  | 
4 | CCc1nnc2n(CCCN3CCN(C(c4ccccc4)c4ccccc4)CC3)c(=O)c3ccccc3n12 [Compound 27] | 199 to 201 °C |  |  | 
5 | CCCc1nnc2n(CCCN3CCN(C(c4ccccc4)c4ccccc4)CC3)c(=O)c3ccccc3n12 [Compound 28] | 150 to 152 °C | 9.3 µM | > 160 µM | 1.4 µM
6 | COc1cc2c(=O)n(CCCN3CCN(C(c4ccccc4)c4ccccc4)CC3)c3nnc(C)n3c2cc1OC [Compound 35] | 184 to 186 °C |  |  | 
7 | Cc1nnc2n(CCCN3CCN(C(c4ccccc4)c4ccccc4)CC3)c(=O)c3ccc(C(F)(F)F)cc3n12 [Compound 45] | 154 to 159.5 °C |  |  | 
8 | Cc1nnc2n(CCCN3CCN(C(c4ccccc4)c4ccccc4)CC3)c(=O)c3cc(N(C)C)ccc3n12 [Compound 47] | 189 to 191 °C |  |  | 
9 | Cc1nnc2n(CCN3CCN(C(c4ccccc4)c4ccccc4)CC3)c(=O)c3ccccc3n12 [Compound 50] | 217 to 219 °C |  |  | 
10 | Cc1nnc2c(CCCN3CCC(C(c4ccccc4)c4ccccc4)CC3)nc3ccccc3n12 [Compound 74] | 88 to 90 °C |  |  | 
11 | Cc1nnc2n(-c3cccc(N4CCC(C(c5ccccc5)c5ccccc5)CC4)c3)c(=O)c3ccccc3n12 [Compound 85] | 277 to 279 °C |  |  | 

The next lines start with the values.

Row | melting point | IC50 (CCR1) | IC50 (CCR2) | IC50 (CCR3) | Structure (SMILES)
12 | 225 to 230.5 °C |  |  |  | Cc1nnc2n(CCCN3CCN(Cc4cccc(Oc5ccccc5)c4)CC3)c(=O)c3ccccc3n12 (as salt: hydrochloride) [Compound 17, 2,4,5,7-Tetraaza-3-methyl-7-(3-(4-((3-phenoxyphenyl)methyl)piperazinyl)propyl)tricyclo[7.4.0.0<2,6>]trideca-1(13),3,5,9(10),11-pentaene-8-one]
13 | 229 to 237 °C |  |  |  | Cc1nnc2n(CCCN3CCN(Cc4ccc(Oc5ccccc5)cc4)CC3)c(=O)c3ccccc3n12 (as salt: hydrochloride) [Compound 20, 2,4,5,7-Tetraaza-3-methyl-7-(3-(4-((4-phenoxyphenyl)methyl)piperazinyl)propyl)tricyclo[7.4.0.0<2,6>]trideca-1(13),3,5,9(10),11-pentaene-8-one]
14 | 207 to 212 °C (dec.) | 12.9 µM | 48.1 µM |  | Cc1nnc2n(CCCN3CCCC(c4c[nH]c5ccccc45)C3)c(=O)c3ccccc3n12 (stereo not drawn) [Compound 5, 2,4,5,7-Tetraaza-7-(3-(3-indole-3-ylpiperidyl)propyl)-3-methyltricyclo[7.4.0.0<2,6>]trideca-1(13),3,5,9(10),11-pentaene-8-one]
15 | 207 to 209 °C (dec.) |  |  |  | Cc1nnc2n(CCCN3CCC(c4c[nH]c5ccccc45)CC3)c(=O)c3ccccc3n12 [Compound 6, 2,4,5,7-Tetraaza-7-(3-(4-indole-3-ylpiperidyl)propyl)-3-methyltricyclo[7.4.0.0<2,6>]trideca-1(13),3,5,9(10),11-pentaene-8-one]
16 |  | 9.1 µM | > 160 µM | 3.6 µM | Cc1nnc2n(CCCN3CCN(Cc4ccccc4-c4ccccc4)CC3)c(=O)c3ccccc3n12 [Compound 11, 2,4,5,7-Tetraaza-3-methyl-7-(3-(4-((2-phenylphenyl)methyl)piperazinyl)propyl)tricyclo[7.4.0.0<2,6>]trideca-1(13),3,5,9(10),11-pentaene-8-one]
17 | 118 to 120 °C |  |  |  | Cc1nnc2n(CCCN3CCN(C4CCCCC4)CC3)c(=O)c3ccccc3n12 [Compound 12]
18 | 168 to 173 °C | 4.1 µM | > 160 µM | 0.3 µM | Cc1nnc2n(CCCN3CCN(C(c4ccccc4)c4ccccc4)CC3)c(=O)c3ccccc3n12 [Compound 26]
19 | 194 to 196 °C |  |  |  | COc1ccc2c(c1)c(=O)n(CCCN1CCN(C(c3ccccc3)c3ccccc3)CC1)c1nnc(C)n21 [Compound 33]
20 | 116 to 118 °C | 16 µM | > 160 µM | 0.5 µM | Cc1nnc2n(CCCN3CCN(C(c4ccccc4)c4ccccc4)CC3)c(=O)c3cc(Cl)ccc3n12 [Compound 38]
21 | 225 to 228 °C |  |  |  | Cc1nnc2n(CCCN3CCN(C(c4ccccc4)c4ccccc4)CC3)c(=O)c3cc(O)ccc3n12 [Compound 40]
22 | 157 to 159 °C |  |  |  | Cc1nnc2n(CCCCN3CCN(C(c4ccccc4)c4ccccc4)CC3)c(=O)c3ccccc3n12 [Compound 55]
23 | 77 to 79 °C |  |  |  | Cc1nnc2n(CCCN3CCN(Cc4ccc(Cl)c(Cl)c4)CC3)c(=O)c3ccccc3n12 [Compound 93, 2,4,5,7-Tetraaza-7-(3-(4-(3,4-dichlorobenzyl)piperazine-1-yl)propyl)-3-methyltricyclo[7.4.0.0<2,6>]trideca-1(13),3,5,9(10),11-pentaene-8-one]
